Results published in paper PMC11637191, “The pH-dependence of efflux ratios determined with bidirectional transport assays across cellular monolayers” (International Journal of Pharmaceutics: X, 2024).
Like-named read-outs stand apart in the source and are kept apart here. Blank lines part the entries; values can stand above or below the compound they belong to.

How the values were obtained:
[1] = tested on: MDCK-MDR1 cells; assay: Comparison of Papp,B-A with and without inhibitor in MDCK-MDR1 cells (own and literature data); details: calculated from literature Papp,B⟶A and Papp with inhibitor; pH 7.4 iso-method
[2] = tested on: MDCK-MDR1 cells; details: pH 7.4 iso-method, cited from earlier work; for Papp, inhibitor: with inhibitor; for Papp, B⟶A: without inhibitor
[3] = ref Troutman and Thakker (2003)

Factor difference [1]: 2
SMILES: CN(C)CCC(c1ccc(Br)cc1)c1ccccn1 (centres unmarked) [Brompheniramine]
Papp, inhibitor ([2]; ref Obradovic et al. (2007)): 76.8 ×10⁻⁶ cm/s
Papp, B⟶A ([2]; ref Obradovic et al. (2007)): 118.8 ×10⁻⁶ cm/s

Factor difference [1]: 1
SMILES: CN(C)CCC(c1ccc(Cl)cc1)c1ccccn1 (centres unmarked) [Chlorpheniramine]
Papp, inhibitor ([2]; ref Obradovic et al. (2007)): 66.2 ×10⁻⁶ cm/s
Papp, B⟶A ([2]; ref Obradovic et al. (2007)): 93.7 ×10⁻⁶ cm/s

Factor difference [1]: 3
SMILES: CN1CCC[C@@H]1CCO[C@](C)(c1ccccc1)c1ccc(Cl)cc1 [Clemastine]
Papp, B⟶A ([2]; ref Obradovic et al. (2007)): 156.4 ×10⁻⁶ cm/s

Factor difference [1]: 2
SMILES: CN1CCC[C@@H]1Cc1c[nH]c2ccc(CCS(=O)(=O)c3ccccc3)cc12 [Eletriptan]
Papp, inhibitor ([2]; ref Doan et al. (2002)): 42.9 ×10⁻⁶ cm/s
Papp, B⟶A ([2]; ref Doan et al. (2002)): 66.3 ×10⁻⁶ cm/s

Factor difference [1]: 3
SMILES: C[C@H]1C[C@@H]2[C@H]([C@@H](O)C[C@@]3(C)[C@H]2CC[C@]3(O)C(=O)CO)[C@@]2(C)C=CC(=O)C=C12 [Methylprednisolone]
Papp, inhibitor [2, 3]: 28.48 ×10⁻⁶ cm/s
Papp, B⟶A [2, 3]: 94.3 ×10⁻⁶ cm/s

Factor difference [1]: 4
SMILES: Cc1c(O)cccc1C(=O)N[C@@H](CSc1ccccc1)[C@H](O)CN1C[C@H]2CCCC[C@H]2C[C@H]1C(=O)NC(C)(C)C [Nelfinavir]
Papp, inhibitor ([2]; ref Doan et al. (2002)): 19.7 ×10⁻⁶ cm/s
Papp, B⟶A ([2]; ref Doan et al. (2002)): 78.6 ×10⁻⁶ cm/s

The next lines start with the compound.

SMILES: CN/C(=N/CCSCc1nc[nH]c1C)NC#N [Cimetidine]
Factor difference [1]: 4
Papp, inhibitor ([2]; ref Doan et al. (2002)): 0.515 ×10⁻⁶ cm/s
Papp, B⟶A ([2]; ref Doan et al. (2002)): 1.89 ×10⁻⁶ cm/s

SMILES: Nc1ccn([C@@H]2CS[C@H](CO)O2)c(=O)n1 [Lamiduvine]
Factor difference [1]: 2
Papp, inhibitor ([2]; ref De Souza et al. (2009)): 0.11 ×10⁻⁶ cm/s
Papp, B⟶A ([2]; ref De Souza et al. (2009)): 0.18 ×10⁻⁶ cm/s

SMILES: CN(C)C(=O)C(CCN1CCC(O)(c2ccc(Cl)cc2)CC1)(c1ccccc1)c1ccccc1 [Loperamide]
Papp, inhibitor ([2]; ref Doan et al. (2002)): 45.6 ×10⁻⁶ cm/s
Papp, inhibitor ([2]; ref Wang et al. (2005)): 12 ×10⁻⁶ cm/s
Papp, B⟶A ([2]; ref Doan et al. (2002)): 77.3 ×10⁻⁶ cm/s
Papp, B⟶A ([2]; ref Wang et al. (2005)): 42.64 ×10⁻⁶ cm/s

SMILES: CN(C)C(=O)Oc1cccc([N+](C)(C)C)c1 [Neostigmine]
Factor difference [1]: 2
Papp, inhibitor ([2]; ref Doan et al. (2002)): 0.852 ×10⁻⁶ cm/s
Papp, B⟶A ([2]; ref Doan et al. (2002)): 1.54 ×10⁻⁶ cm/s

SMILES: C=C[C@H]1C[N@@]2CC[C@H]1C[C@@H]2[C@@H](O)c1ccnc2ccc(OC)cc12 [Quinidine]
Papp, inhibitor ([2]; ref Gertz et al. (2010)): 0.176 ×10⁻⁶ cm/s
Papp, inhibitor [2, 3]: 25.6 ×10⁻⁶ cm/s
Papp, inhibitor ([2]; ref Wang et al. (2005)): 10 ×10⁻⁶ cm/s
Papp, B⟶A ([2]; ref Gertz et al. (2010)): 66.88 ×10⁻⁶ cm/s
Papp, B⟶A [2, 3]: 156 ×10⁻⁶ cm/s
Papp, B⟶A ([2]; ref Wang et al. (2005)): 114.82 ×10⁻⁶ cm/s

SMILES: CNC(=C[N+](=O)[O-])NCCSCc1ccc(CN(C)C)o1 [Ranitidine]
Factor difference [1]: 3
Papp, inhibitor [2, 3]: 1.25 ×10⁻⁶ cm/s
Papp, B⟶A [2, 3]: 3.29 ×10⁻⁶ cm/s

SMILES: COC(=O)c1ccccc1-c1c2ccc(=N)cc-2oc2cc(N)ccc12 [Rhodamine 123]
Papp, inhibitor ([2]; ref Tang et al. (2004)): 1.173 ×10⁻⁶ cm/s
Papp, inhibitor [2, 3]: 1.16 ×10⁻⁶ cm/s
Papp, inhibitor ([2]; ref Wang et al. (2005)): 2.2 ×10⁻⁶ cm/s
Papp, B⟶A ([2]; ref Tang et al. (2004)): 10.17 ×10⁻⁶ cm/s
Papp, B⟶A [2, 3]: 15.3 ×10⁻⁶ cm/s
Papp, B⟶A ([2]; ref Wang et al. (2005)): 7.63 ×10⁻⁶ cm/s

SMILES: CC(C)(C)NC(=O)[C@@H]1C[C@@H]2CCCC[C@@H]2CN1C[C@@H](O)[C@H](Cc1ccccc1)NC(=O)[C@H](CC(N)=O)NC(=O)c1ccc2ccccc2n1 [Saquinavir]
Papp, inhibitor ([2]; ref Doan et al. (2002)): 22 ×10⁻⁶ cm/s
Papp, inhibitor [2, 3]: 12.6 ×10⁻⁶ cm/s
Papp, B⟶A ([2]; ref Doan et al. (2002)): 39.5 ×10⁻⁶ cm/s
Papp, B⟶A [2, 3]: 108 ×10⁻⁶ cm/s

SMILES: CC(C)(C)c1ccc(C(O)CCCN2CCC(C(O)(c3ccccc3)c3ccccc3)CC2)cc1 (centres unmarked) [Terfenadine]
Papp, inhibitor ([2]; ref Doan et al. (2002)): 28.5 ×10⁻⁶ cm/s
Papp, inhibitor ([2]; ref Obradovic et al. (2007)): 2.39 ×10⁻⁶ cm/s
Papp, B⟶A ([2]; ref Doan et al. (2002)): 42.1 ×10⁻⁶ cm/s
Papp, B⟶A ([2]; ref Obradovic et al. (2007)): 11.43 ×10⁻⁶ cm/s

SMILES: CC[C@]1(O)C[C@@H]2CN(CCc3c([nH]c4ccccc34)[C@@](C(=O)OC)(c3cc4c(cc3OC)N(C)[C@H]3[C@@](O)(C(=O)OC)[C@H](OC(C)=O)[C@]5(CC)C=CCN6CC[C@]43[C@@H]65)C2)C1 [Vinblastine]
Papp, inhibitor ([2]; ref Taub et al. (2005)): 1.92 ×10⁻⁶ cm/s
Papp, inhibitor [2, 3]: 17.7 ×10⁻⁶ cm/s
Papp, inhibitor ([2]; ref Wang et al. (2005)): 1.2 ×10⁻⁶ cm/s
Papp, B⟶A ([2]; ref Taub et al. (2005)): 13.22 ×10⁻⁶ cm/s
Papp, B⟶A [2, 3]: 35.7 ×10⁻⁶ cm/s
Papp, B⟶A ([2]; ref Wang et al. (2005)): 10.77 ×10⁻⁶ cm/s
